Publication PMC7762503, “Pathomechanism characterization and potential therapeutics identification for SCA3 targeting neuroinflammation” (Aging (Albany NY), 2020)
pEC50: −log10 of the molar value.

Legend:
[1] = MTT cytotoxicity assay, HMC3 cells; format: cell-based; settings: human, 0.1−100 μM, 28 h treatment, read-out: IC50 (cytotoxicity, MTT viability)
Protocol: (§1) To evaluate compound cytotoxicity, 2 × 10^4 (HMC3) or 1 × 10^4 (SH-SY5Y) cells were plated on 48-well dishes, grown for 20 h, and treated with the tested compounds (0.1−100 μM). After 28 h (HMC3) or 6 days (SH-SY5Y), 20 μl of 3-(4,5-dimethylthiazol-2-yl)-2,5-diphenyltetrazolium bromide (MTT) (5 mg/ml) was added to the cells at 37°C for 3 h. 200 μl of lysis buffer (10% Triton X-100, 0.1 N HCl, 18% isopropanol) was then added to dishes and the absorbance of the insoluble purple formazan product at OD 570 nm was read by a FLx800 fluorescence microplate spectrophotometer (Bio-Tek, Winooski, VT, USA). The IC50 of the tested compounds were calculated using the interpolation method.

[2] = MTT cytotoxicity assay, SH-SY5Y cells; format: cell-based; settings: human, 0.1−100 μM, 6 days treatment, read-out: IC50 (cytotoxicity, MTT viability)
Protocol: as §1

[3] = DPPH radical-scavenging assay; settings: 200 μM DPPH, compounds 10–160 μM, 30 min, room temperature
Protocol: The DPPH radical-scavenging activity was measured in an ethanol mixture containing 200 μM DPPH (Sigma-Aldrich) radical solution and the tested compounds (10–160 μM). The solution was vortexed and incubated for 30 min at room temperature. The scavenging capacity was measured by monitoring the decrease in absorbance at 517 nm with a microplate spectrophotometer (Multiskan GO, Thermo Fisher Scientific). The half maximal effective concentrations (EC50) for inhibition of the formation of DPPH radicals were calculated using the interpolation method.

ATXN3/Q75-GFP [4] = assay: High content polyQ aggregation analysis, ATXN3/Q75-GFP SH-SY5Y cells; format: cell-based, human; settings: 10 μM compound, ATXN3/Q75-GFP-expressing cells; for reduction of aggregation: vs untreated 2.8%
Protocol: (§2) ATXN3/Q75-GFP SH-SY5Y cells were plated on 24-well (1 × 10^4/well) dishes, and retinoic acid (10 μM; Sigma-Aldrich) was added to initiate neuronal differentiation. On the second day, cells were treated with the tested compound (10 μM) for 8 h before ATXN3-GFP expression induction by adding doxycycline (5 μg/ml). For comparison, cells without inducing ATXN3/Q75-GFP expression were included. The cells were kept in the medium containing retinoic acid, doxycycline and test compound for 6 days. For the cells with inflammatory stimulation, HMC3 conditioned medium with (CM/+IFN-γ) or without (CM/–IFN-γ) IFN-γ stimulation was added at a 1:1 ratio in the last two days. On the eighth day, cells were stained with Hoechst 33342 (0.1 μg/ml; Sigma-Aldrich) for 30 min, and images of the cells were automatically obtained using an ImageXpressMICRO high content analysis (HCA) system (Molecular Devices, San Jose, CA, USA). Excitation/emission filters were at 482/536 and 377/447 nm for enhanced GFP and Hoechst 33342, respectively. Aggregation was determined by Transfluor technology based on GFP fluorescence intensity. Neurite length, process and branch of ATXN3/Q75-GFP-expressing cells were analyzed by using Metamorph microscopy automation and image analysis software (neurite outgrowth application module, Molecular Devices). In addition, cells were fixed, permeated and stained with neuronal class III β-tubulin (TUBB3) antibody (1:1000; Covance, Princeton, NJ, USA), followed by anti-rabbit Alexa Fluor ®555 antibody (1:1000; Thermo Fisher Scientific) for neurite outgrowth analysis. To quantify neurite outgrowth, microscopic images were segmented with multi-colored mask to assign each outgrowth to a cell body for quantification. In general, 10^4 cells in each biological replicate were analyzed.

[5] = test system: ATXN3/Q75-GFP SH-SY5Y cells; assay: Neurite outgrowth analysis, ATXN3/Q75-GFP SH-SY5Y cells; format: cell-based, human; settings: 10 μM compound, ATXN3/Q75-GFP-expressing cells; for neurite branch: untreated 1.0; for neurite process: untreated 1.8; for neurite length: untreated 23.6 μm
Protocol: as §2

[6] = test system: ATXN3/Q75-GFP SH-SY5Y cells; assay: Neurite outgrowth analysis, CM/+IFN-γ-inflamed ATXN3/Q75-GFP SH-SY5Y cells; format: cell-based, human; settings: 10 μM compound; for neurite process: untreated 1.4; for neurite length: untreated 14.4 μm
Protocol: as §2

ATXN3/Q75-GFP [7] = assay: Western blot of soluble ATXN3/Q75-GFP protein; format: cell-based, human; settings: 10 μM compound; without compound = 100%
Protocol: Cells were lysed using buffer (50 mM Tris-HCl pH8.0, 0.5% sodium deoxycholate, 0.1% SDS, 150 mM NaCl, 2 mM EDTA, 50 mM NaF and 1% NP40) containing the protease inhibitor cocktail (Sigma-Aldrich). After sonication, the lysates were centrifuged at 12,000 × g for 10 min at 4°C. Protein concentrations were determined using a protein assay kit (Bio-Rad, Hercules, CA, USA), with albumin as standards. Total soluble proteins (20 μg) were electrophoresed on 10% SDS-polyacrylamide gel and transferred onto polyvinylidene difluoride membrane (Sigma-Aldrich) by reverse electrophoresis. After being blocked, the membrane was stained with ATXN3 (1:1000; GeneTex, Irvive, CA, USA), GFP (1:1000; Santa Cruz Biotechnology, Santa Cruz, CA, USA), CD68 (1:1000; Cell Signaling), IκBα (1:1000; Cell Signaling), p-IκBα (S32/36) (1:1000; Cell Signaling), P65 (1:1000; Cell Signaling), p-P65 (S536) (1:1000; Cell Signaling), JNK (1:1000; Cell Signaling), p-JNK (T183/Y185) (1:500; Cell Signaling), JUN, p-JUN (S63) (1:1000; Cell Signaling), P38 (1:1000; Cell Signaling), p-P38 (T180/Y182) (1:1000; Cell Signaling), STAT1 (1:1000; Cell Signaling), p-STAT1 (S727) (1:1000; Cell Signaling), or GAPDH (1:5000; MDBio Inc., Taipei, Taiwan) primary antibody at room temperature 2 h or 4°C overnight. The immune complexes were detected using horseradish peroxidase (HRP)-conjugated goat anti-mouse or goat anti-rabbit IgG antibody (1:5000; GeneTex) and chemiluminescent HRP substrate (Millipore, Billerica, MA, USA).

Row | Structure (SMILES) | IC50 at 28 h [1] | IC50 at 6 days [2] | pEC50 [3] | polyQ aggregation (cells with aggregates) (ATXN3/Q75-GFP [4]; untreated 2.8%) | neurite branch [5] | neurite process [5] | neurite length [5] | neurite process [6] | neurite length [6] | reduction of aggregation (ATXN3/Q75-GFP [4]) | soluble ATXN3/Q75-GFP protein (Western blot, GFP antibody) (ATXN3/Q75-GFP [7]) | neurite branch ([6]; untreated 0.6) | DPPH scavenging activity EC50 [3]
1 | CCCCC/C=C\C/C=C\C/C=C\C/C=C\CCCC(=O)Nc1ccc(O)cc1 [AM404, reference compound] | 84 µM | 49 µM | 3.85 | not reducing ATXN3/Q75 aggregation | 1.4 | 2.2 | 30.8 μm | 1.6 | 17.3–18.0 μm | – | – | – | –
2 | O=c1c(O)c(-c2ccc(O)cc2)oc2cc(O)cc(O)c12 [Kaempferol, kaempferol, reference compound] | – | – | 4.57 | – | – | – | – | – | – | – | – | – | –
3 | O=C(c1ccccc1)c1cc2c(O)cccc2oc1=O [LM-031, 3-benzoyl-5-hydroxychromen-2-one] | > 100 µM | > 100 µM | 4.00 | – | 1.2 | 2.0–2.1 | 26.9–27.2 μm | 1.6 | 17.3–18.0 μm | 12–25% | 144−173% | 0.8 | –
4 | CC(=O)/C(=C/c1ccccc1[N+](=O)[O-])Cc1c[nH]c2ccccc12 [NC009-1] | > 100 µM | 52 µM | – | – | 1.2 | 2.0–2.1 | 26.9–27.2 μm | 1.6 | 17.3–18.0 μm | 12–25% | 144−173% | – | no detectable DPPH-scavenging activity
5 | O=[N+]([O-])c1cccc2nc(/C=C/c3cc4ccccc4nc3N3CCOCC3)ccc12 [VB-037] | > 100 µM | 78 µM | – | – | 1.2 | 2.0–2.1 | 26.9–27.2 μm | – | – | 12–25% | 144−173% | – | no detectable DPPH-scavenging activity
